Results published in US10328066B2, “Pharmaceutical combination comprising the PI3K inhibitor alpelisib and the CDK4/6 inhibitor ribociclib, and the use thereof in the treatment/prevention of cancer” (Novartis AG, priority 2015, dated 2019).

Legend:
Assay type in all cases: cell-based
[1] = system: 15 colorectal cancer cell lines; assay: In vitro proliferation, summary over the cell line panel; conditions: single agents
Procedure: (§1) COMPOUNDS A, B, and C were dissolved in 100% DMSO (Sigma, Catalog number D2650) at concentrations of 20 mM and stored at −20° C. until use. Compounds were arrayed in drug master plates (Greiner, Catalog number 788876) and serially diluted 3-fold (7 steps) at 2000× concentration.
(§2) Colorectal cancer cell lines used for this study were obtained, cultured and processed from commercial vendors ATCC, CellBank Australia, DMSZ, ECACC, and HSRRB (Table 1). All cell line media were supplemented with 10% FBS (HyClone, Catalog number SH30071.03). Media for LIM2551 was additionally supplemented with 0.6 μg/mL Insulin (SIGMA, Catalog number 19278), 1 μg/mL Hydrocortisone (SIGMA, Catalog number H0135), and 10 μM 1-Thioglycerol (SIGMA, Catalog number M6145).
(§3) Cell lines were cultured in 37° C. and 5% CO2 incubator and expanded in T-75 flasks. In all cases cells were thawed from frozen stocks, expanded through ≥1 passage using 1:3 dilutions, counted and assessed for viability using a ViCell counter (Beckman-Coulter) prior to plating. To split and expand cell lines, cells were dislodged from flasks using 0.25% Trypsin-EDTA (GIBCO, Catalog number 25200). All cell lines were determined to be free of mycoplasma contamination as determined by a PCR detection methodology performed at Idexx Radil (Columbia, Mo., USA) and correctly identified by detection of a panel of SNPs.
To test the effect of the combination of COMPOUND A, COMPOUND B, and COMPOUND C on cell proliferation cells were plated in black 384-well microplates with clear bottom (Matrix/Thermo Scientific, Catalog number 4332) in 50 μL media per well at cell densities between 500 and 1250 cells/well (Table 1) and allowed to incubate at 37 degrees, 5% CO2 for 24 h. […] Caspase 3/7 induction was measured as a proxy for apoptosis induced by the treatments. Cells were treated for 72 h to 96 h depending on their doubling time (Table 1), and Caspase 3/7 activation was measured every 24 h by microscopy using an InCell Analyzer 2000 (GE Healthcare) equipped with a 4× objective and FITC excitation/emission filters. […]

HT-29 = assay: In vitro proliferation (cell count by microscopy), single agents and combination; conditions: Homo sapiens; HT-29 (BRAF, PIK3CA), 72 h treatment; 50% of cell counts relative to DMSO
Procedure: as §1, §2, §3
(§4) To test the effect of the combination of COMPOUND A, COMPOUND B, and COMPOUND C on cell proliferation cells were plated in black 384-well microplates with clear bottom (Matrix/Thermo Scientific, Catalog number 4332) in 50 μL media per well at cell densities between 500 and 1250 cells/well (Table 1) and allowed to incubate at 37 degrees, 5% CO2 for 24 h. After 24 h one 384-well plate per cell line was prepared for cell counting by microscopy (see below) without receiving treatment (=‘baseline’). The other cell plates were treated by transferring 25 nL of the 2000× compound from drug master plates using an ATS acoustic liquid dispenser (ECD Biosystems) and resulting in a final 1× concentration. COMPOUND A was used over a final concentration range of 13 nM-10 μM, COMPOUND B was used over a final concentration range of 13 nM-10 μM, and COMPOUND C was used over a final concentration range of 27 nM-20 μM (7 1:3 dilution steps). In order to assess the effect of the triple combination all individual COMPOUNDS (A, B, C), all three pair wise combinations (A+B, A+C, B+C), and the triple combination (A+B+C) were tested in the same experiment. Pair wise combinations and the triple combination were tested at a fixed ratio of 1:1 (for drug pairs) and 1:1:1 (for the drug triple) at each dilution resulting in 7 combination conditions per treatment. […] After compound addition 50 nL of 2 mM CellEvent Caspase-3/7 Green Detection Reagent (ThermoFisher, Catalog number C10423) were added to one of the three replicates using the HP D300 Digital Dispenser (Tecan). Caspase 3/7 induction was measured as a proxy for apoptosis induced by the treatments. Cells were treated for 72 h to 96 h depending on their doubling time (Table 1), and Caspase 3/7 activation was measured every 24 h by microscopy using an InCell Analyzer 2000 (GE Healthcare) equipped with a 4× objective and FITC excitation/emission filters. At the end of the treatment cells were prepared for cell counting by microscopy. Cells were fixed and permeabilised for 45 minutes in 4% PFA (Electron Microscopy Sciences, Catalog number 15714), 0.12% TX-100 (Electron Microscopy Sciences, Catalog number 22140) in PBS (Boston Bioproducts, Catalog number BM-220). After washing cells three times with PBS their DNA was stained for 30 minutes with Hoechst 33342 (ThermoFisher, Catalog number H3570) at a final concentration of 4 μg/mL. Cells were washed three times with PBS and then plates were heat-sealed using a PlateLoc (Agilent Technologies) with aluminum seals (Agilent Technologies, Catalog number 06644-001) and stored at 4° C. until imaging. […]

RKO = assay: as above; conditions: Homo sapiens; RKO (BRAF, PIK3CA), 72 h treatment; 50% of cell counts relative to DMSO
Procedure: as §1, §2, §3, §4

COLO-320 = assay: as above; conditions: Homo sapiens; COLO-320 (no driver mutation listed), 72 h treatment; 50% of cell counts relative to DMSO
Procedure: as §1, §2, §3, §4

SW837 = assay: as above; conditions: Homo sapiens; SW837 (KRAS), 72 h treatment; 50% of cell counts relative to DMSO
Procedure: as §1, §2, §3, §4

HCT-116 = assay: as above; conditions: Homo sapiens; HCT-116 (KRAS, PIK3CA), 72 h treatment; 50% of cell counts relative to DMSO
Procedure: as §1, §2, §3, §4

COLO-205 = assay: as above; conditions: Homo sapiens; COLO-205 (BRAF), 72 h treatment; 50% of cell counts relative to DMSO
Procedure: as §1, §2, §3, §4

LIM2551 = assay: as above; conditions: LIM2551 (BRAF, PIK3CA), 72 h treatment; 50% of cell counts relative to DMSO
Procedure: as §1, §2, §3, §4

SW480 = assay: as above; conditions: Homo sapiens; SW480 (KRAS), 72 h treatment; 50% of cell counts relative to DMSO
Procedure: as §1, §2, §3, §4

OUMS-23 = assay: as above; conditions: OUMS-23 (BRAF), 72 h treatment; 50% of cell counts relative to DMSO
Procedure: as §1, §2, §3, §4

GP2d = assay: as above; conditions: GP2d (KRAS, PIK3CA), 72 h treatment; 50% of cell counts relative to DMSO
Procedure: as §1, §2, §3, §4

LS-180 = assay: as above; conditions: Homo sapiens, LS180; LS-180 (KRAS, PIK3CA), 72 h treatment; 50% of cell counts relative to DMSO
Procedure: as §1, §2, §3, §4

LS411N = assay: as above; conditions: Homo sapiens, LS-411N; LS411N (BRAF), 72 h treatment; 50% of cell counts relative to DMSO
Procedure: as §1, §2, §3, §4

LoVo = assay: as above; conditions: Homo sapiens; LoVo (KRAS), 96 h treatment; 50% of cell counts relative to DMSO
Procedure: as §1, §2, §3, §4

DLD-1 = assay: as above; conditions: Homo sapiens; DLD-1 (KRAS, PIK3CA), 72 h treatment; 50% of cell counts relative to DMSO
Procedure: as §1, §2, §3, §4

NCI-H508 = assay: as above; conditions: Homo sapiens; NCI-H508 (PIK3CA), 72 h treatment; 50% of cell counts relative to DMSO
Procedure: as §1, §2, §3, §4

SMILES | IC50 values across the cell lines (summary in words) [1] | IC50 (HT-29) [µM] | IC50 (RKO) [µM] | IC50 (COLO-320) [µM] | IC50 (SW837) [µM] | IC50 (HCT-116) [µM] | IC50 (COLO-205) [µM] | IC50 (LIM2551) [µM] | IC50 (SW480) [µM] | IC50 (OUMS-23) [µM] | IC50 (GP2d) [µM] | IC50 (LS-180) [µM] | IC50 (LS411N) [µM] | IC50 (LoVo) [µM] | IC50 (DLD-1) [µM] | IC50 (NCI-H508) [µM]
Cc1nc(NC(=O)N2CCC[C@H]2C(N)=O)sc1-c1ccnc(C(C)(C)C(F)(F)F)c1 [COMPOUND A, (S)-Pyrrolidine-1,2-dicarboxylic acid 2-amide 1-({4-methyl-5-[2-(2,2,2-trifluoro-1,1-dimethyl-ethyl)-pyridin-4-yl]-thiazol-2-yl}-amide)] | mostly micromolar IC50 values |  |  |  |  |  |  |  |  |  |  |  |  |  |  | 
CN(C)C(=O)c1cc2cnc(Nc3ccc(N4CCNCC4)cn3)nc2n1C1CCCC1 [COMPOUND B, 7-Cyclopentyl-2-(5-piperazin-1-yl-pyridin-2-ylamino)-7H-pyrrolo[2,3-d]pyrimidine-6-carboxylic acid dimethylamide] | mostly micromolar IC50 values |  |  |  |  |  |  |  |  |  |  |  |  |  |  | 
O=c1[nH]cc(F)c(=O)[nH]1 [COMPOUND C, 5-fluoro-2,4-(1H,3H) pyrimidinedione] | micromolar IC50s in all but one cell line (SW480) | 7.4 | 2.1 | 2.4 | 7.7 | 5.6 | 0.6 | 4.2 | > 20 | 10.4 | 3.2 | 14 | 4.1 | 5.6 | 6.6 | 3.3
